Measured values as given in paper PMC9569971, “New Oxazolo[5,4-d]pyrimidines as Potential Anticancer Agents: Their Design, Synthesis, and In Vitro Biological Activity Research” (International Journal of Molecular Sciences, 2022).

What was measured:
[1] = tested on: HT29 primary colon adenocarcinoma cells; assay: Detection of apoptosis (Annexin V FITC / propidium iodide); type: cell-based, human; design: unit not given here; conditions: 24 h
Procedure, shortened: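 After 24 h growth at 30,000 cells/well, HT29 cells were treated with compound at 1, 2, 5 and 10 µM for 24 h. They were then stained with Annexin V-FITC/propidium iodide in PBS with Mg²⁺/Ca²⁺ for 20 min at 37 °C.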

[2] = tested on: breast adenocarcinoma (MCF7); assay: MTT viability assay, MCF7; type: cell-based, human; conditions: Homo sapiens; MCF7, MTT, tested 1–500 µM
p53 = p53 Human ELISA Kit, HT29 lysate; type: cell-based; conditions: lysate of HT29 cells treated with 3g; SD ±0.97
Description: The assay was performed on a lysate of the HT29 colon adenocarcinoma cell line treated with compound 3g. The microwells of the 96-well plate were washed 2 times with approximately 400 µL of washing buffer per well. The washing buffer was left in the wells for approximately 15 s prior to aspiration. Care was taken not to scratch the surface of the microwells. After the final rinsing step, the wells were emptied. An absorbent swab was used to remove excess wash buffer. Standard dilutions were applied to the microwell plate. Two rows of human p53 standard were prepared at dilutions ranging from 50.00 to 0.78 U/mL. […] The color change was monitored with an ELISA measured at 620 nm. The colored product was formed in proportion to the quantity of human p53 protein present in the sample and the standard. […] The results were read immediately after the addition of the enzyme stop solution. Absorbance was measured with a spectrophotometer at 450 nm. A standard curve was prepared from 7 dilutions of the human p53 standard from which the values for compound 3g were read.
Biological assays were performed in three independent replicates, and each replicate used four samples. […] For the assessment of cytotoxicity, mathematical models were developed using the GraphPad PRISM software, based on which CC50 was determined. […]

**Q.** Which results are given for `Cc1noc(N)c1-c1nc2c(NCCCN(C)C)ncnc2o1` [Compound 3g, 2-(5-Amino-3-methylisoxazol-4-yl)-7-N-[3-(N,N-dimethylamino)propyl]aminooxazolo[5,4-d]pyrimidine]?
**A.** apoptosis mean ([1]; 1 μM): 3.74; late apoptosis mean ([1]; 1 μM): 8.08; necrosis mean ([1]; 1 μM): 11.28; percent live (viable) cells ([1]; 1 μM): 76.90; apoptosis mean ([1]; 2 μM): 9.72; late apoptosis mean ([1]; 2 μM): 9.30; necrosis mean ([1]; 2 μM): 6.34; percent live (viable) cells ([1]; 2 μM): 74.65; apoptosis mean ([1]; 5 μM): 51.54; late apoptosis mean ([1]; 5 μM): 23.48; necrosis mean ([1]; 5 μM): 1.18; percent live (viable) cells ([1]; 5 μM): 23.81; apoptosis mean ([1]; 10 μM): 45.24; late apoptosis mean ([1]; 10 μM): 29.23; necrosis mean ([1]; 10 μM): 0.90; percent live (viable) cells ([1]; 10 μM): 24.62; CC50 [2]: 209 ± 9.67 µM; p53 concentration (p53): 4.22 [U/mL]
